# Data from the NIST ThermoML archive (doi:10.1021/acs.jced.5b00989).
# Numbers after ± are expanded uncertainties.
# Assay: molar heat capacity at constant pressure; xn = mol fraction of the nth substance listed
# Settings: 100 kPa, Liquid, Small sample (50 mg) DSC
smiles,measurement,setting,value
CCCC[N+](CCCC)(CCCC)CCCC.[Cl-] [tetrabutylammonium chloride] + OCCO,molar heat capacity at constant pressure,"298.2 K, x1 = 0.25",288.3 ± 7.1 J/K/mol
same,molar heat capacity at constant pressure,"300.7 K, x1 = 0.25",289.6 ± 7.1 J/K/mol
same,molar heat capacity at constant pressure,"303.2 K, x1 = 0.25",291 ± 7.1 J/K/mol
same,molar heat capacity at constant pressure,"305.7 K, x1 = 0.25",292.2 ± 7.2 J/K/mol
same,molar heat capacity at constant pressure,"308.2 K, x1 = 0.25",293.2 ± 7.2 J/K/mol
same,molar heat capacity at constant pressure,"310.7 K, x1 = 0.25",294.5 ± 7.2 J/K/mol
same,molar heat capacity at constant pressure,"313.2 K, x1 = 0.25",295.8 ± 7.2 J/K/mol
same,molar heat capacity at constant pressure,"315.7 K, x1 = 0.25",296.8 ± 7.3 J/K/mol
same,molar heat capacity at constant pressure,"318.2 K, x1 = 0.25",297.9 ± 7.3 J/K/mol
same,molar heat capacity at constant pressure,"320.7 K, x1 = 0.25",299.5 ± 7.3 J/K/mol
same,molar heat capacity at constant pressure,"323.2 K, x1 = 0.25",300.5 ± 7.4 J/K/mol
same,molar heat capacity at constant pressure,"325.7 K, x1 = 0.25",301.2 ± 7.4 J/K/mol
same,molar heat capacity at constant pressure,"328.2 K, x1 = 0.25",302.4 ± 7.4 J/K/mol
same,molar heat capacity at constant pressure,"330.7 K, x1 = 0.25",303.5 ± 7.4 J/K/mol
same,molar heat capacity at constant pressure,"333.2 K, x1 = 0.25",304.8 ± 7.5 J/K/mol
same,molar heat capacity at constant pressure,"335.7 K, x1 = 0.25",305.9 ± 7.5 J/K/mol
same,molar heat capacity at constant pressure,"338.2 K, x1 = 0.25",306.9 ± 7.5 J/K/mol
same,molar heat capacity at constant pressure,"340.7 K, x1 = 0.25",307.7 ± 7.5 J/K/mol
same,molar heat capacity at constant pressure,"343.2 K, x1 = 0.25",308.5 ± 7.6 J/K/mol
same,molar heat capacity at constant pressure,"345.7 K, x1 = 0.25",309.1 ± 7.6 J/K/mol
same,molar heat capacity at constant pressure,"348.2 K, x1 = 0.25",309.6 ± 7.6 J/K/mol
same,molar heat capacity at constant pressure,"350.7 K, x1 = 0.25",310.6 ± 7.6 J/K/mol
same,molar heat capacity at constant pressure,"353.2 K, x1 = 0.25",312.6 ± 7.7 J/K/mol
CCCC[N+](CCCC)(CCCC)CCCC.[Cl-] [tetrabutylammonium chloride] + OCCOCCOCCO,molar heat capacity at constant pressure,"298.2 K, x1 = 0.5",445 ± 11 J/K/mol
same,molar heat capacity at constant pressure,"300.7 K, x1 = 0.5",447.8 ± 11 J/K/mol
same,molar heat capacity at constant pressure,"303.2 K, x1 = 0.5",448.9 ± 11 J/K/mol
same,molar heat capacity at constant pressure,"305.7 K, x1 = 0.5",450.6 ± 11 J/K/mol
same,molar heat capacity at constant pressure,"308.2 K, x1 = 0.5",452.3 ± 11 J/K/mol
same,molar heat capacity at constant pressure,"310.7 K, x1 = 0.5",454.2 ± 11 J/K/mol
same,molar heat capacity at constant pressure,"313.2 K, x1 = 0.5",456.1 ± 11 J/K/mol
same,molar heat capacity at constant pressure,"315.7 K, x1 = 0.5",457.4 ± 11 J/K/mol
same,molar heat capacity at constant pressure,"318.2 K, x1 = 0.5",458.7 ± 11 J/K/mol
same,molar heat capacity at constant pressure,"320.7 K, x1 = 0.5",460.2 ± 11 J/K/mol
same,molar heat capacity at constant pressure,"323.2 K, x1 = 0.5",461.9 ± 11 J/K/mol
same,molar heat capacity at constant pressure,"325.7 K, x1 = 0.5",463 ± 11 J/K/mol
same,molar heat capacity at constant pressure,"328.2 K, x1 = 0.5",464.5 ± 11 J/K/mol
same,molar heat capacity at constant pressure,"330.7 K, x1 = 0.5",466.2 ± 11 J/K/mol
same,molar heat capacity at constant pressure,"333.2 K, x1 = 0.5",467.7 ± 12 J/K/mol
same,molar heat capacity at constant pressure,"335.7 K, x1 = 0.5",469.2 ± 12 J/K/mol
same,molar heat capacity at constant pressure,"338.2 K, x1 = 0.5",471.1 ± 12 J/K/mol
same,molar heat capacity at constant pressure,"340.7 K, x1 = 0.5",472.6 ± 12 J/K/mol
same,molar heat capacity at constant pressure,"343.2 K, x1 = 0.5",473.7 ± 12 J/K/mol
same,molar heat capacity at constant pressure,"345.7 K, x1 = 0.5",475.2 ± 12 J/K/mol
same,molar heat capacity at constant pressure,"348.2 K, x1 = 0.5",475.6 ± 12 J/K/mol
same,molar heat capacity at constant pressure,"350.7 K, x1 = 0.5",476 ± 12 J/K/mol
same,molar heat capacity at constant pressure,"353.2 K, x1 = 0.5",479.7 ± 12 J/K/mol
OCCOCCOCCO [triethylene glycol] + C[N+](C)(C)CCO.[Cl-],molar heat capacity at constant pressure,"298.15 K, x2 = 0.33",299 ± 7.3 J/K/mol
same,molar heat capacity at constant pressure,"300.65 K, x2 = 0.33",300.3 ± 7.4 J/K/mol
same,molar heat capacity at constant pressure,"303.15 K, x2 = 0.33",301.5 ± 7.4 J/K/mol
same,molar heat capacity at constant pressure,"305.65 K, x2 = 0.33",302.8 ± 7.4 J/K/mol
same,molar heat capacity at constant pressure,"308.15 K, x2 = 0.33",303.7 ± 7.4 J/K/mol
same,molar heat capacity at constant pressure,"310.65 K, x2 = 0.33",304.5 ± 7.5 J/K/mol
same,molar heat capacity at constant pressure,"313.15 K, x2 = 0.33",304.7 ± 7.5 J/K/mol
same,molar heat capacity at constant pressure,"315.65 K, x2 = 0.33",304.6 ± 7.5 J/K/mol
same,molar heat capacity at constant pressure,"318.15 K, x2 = 0.33",304.6 ± 7.5 J/K/mol
same,molar heat capacity at constant pressure,"320.65 K, x2 = 0.33",304.3 ± 7.5 J/K/mol
same,molar heat capacity at constant pressure,"323.15 K, x2 = 0.33",304.3 ± 7.5 J/K/mol
same,molar heat capacity at constant pressure,"325.65 K, x2 = 0.33",304.9 ± 7.5 J/K/mol
same,molar heat capacity at constant pressure,"328.15 K, x2 = 0.33",305.8 ± 7.5 J/K/mol
same,molar heat capacity at constant pressure,"330.65 K, x2 = 0.33",306.7 ± 7.5 J/K/mol
same,molar heat capacity at constant pressure,"333.15 K, x2 = 0.33",307.4 ± 7.5 J/K/mol
same,molar heat capacity at constant pressure,"335.65 K, x2 = 0.33",308.6 ± 7.6 J/K/mol
same,molar heat capacity at constant pressure,"338.15 K, x2 = 0.33",309.4 ± 7.6 J/K/mol
same,molar heat capacity at constant pressure,"340.65 K, x2 = 0.33",309.9 ± 7.6 J/K/mol
same,molar heat capacity at constant pressure,"343.15 K, x2 = 0.33",310 ± 7.6 J/K/mol
same,molar heat capacity at constant pressure,"345.65 K, x2 = 0.33",311.8 ± 7.6 J/K/mol
same,molar heat capacity at constant pressure,"348.15 K, x2 = 0.33",312.2 ± 7.6 J/K/mol
same,molar heat capacity at constant pressure,"350.65 K, x2 = 0.33",312.4 ± 7.7 J/K/mol
same,molar heat capacity at constant pressure,"353.15 K, x2 = 0.33",314.6 ± 7.7 J/K/mol
